Experimental data taken from patent US9505724B2, “4-amino substituted condensed pyrimidine compounds as PDE4 inhibitors” (GRÜNENTHAL GMBH, priority 2013, dated 2016).
Counter-ions that a name gives are not always drawn. Like-named read-outs stand apart in the source and are kept apart here.

How the values were obtained:
human PDE4B1 = molecular target: T1, human PDE4B1 (Homo sapiens, UniProt Q07343); test: cAMP HTRF assay to determine the activity of hPDE4B1; format: biochemical; details: read-out: PDE4B IC50
T1 construct: host or cells: Sf9 cells
T1 sequence (Q07343 whole entry): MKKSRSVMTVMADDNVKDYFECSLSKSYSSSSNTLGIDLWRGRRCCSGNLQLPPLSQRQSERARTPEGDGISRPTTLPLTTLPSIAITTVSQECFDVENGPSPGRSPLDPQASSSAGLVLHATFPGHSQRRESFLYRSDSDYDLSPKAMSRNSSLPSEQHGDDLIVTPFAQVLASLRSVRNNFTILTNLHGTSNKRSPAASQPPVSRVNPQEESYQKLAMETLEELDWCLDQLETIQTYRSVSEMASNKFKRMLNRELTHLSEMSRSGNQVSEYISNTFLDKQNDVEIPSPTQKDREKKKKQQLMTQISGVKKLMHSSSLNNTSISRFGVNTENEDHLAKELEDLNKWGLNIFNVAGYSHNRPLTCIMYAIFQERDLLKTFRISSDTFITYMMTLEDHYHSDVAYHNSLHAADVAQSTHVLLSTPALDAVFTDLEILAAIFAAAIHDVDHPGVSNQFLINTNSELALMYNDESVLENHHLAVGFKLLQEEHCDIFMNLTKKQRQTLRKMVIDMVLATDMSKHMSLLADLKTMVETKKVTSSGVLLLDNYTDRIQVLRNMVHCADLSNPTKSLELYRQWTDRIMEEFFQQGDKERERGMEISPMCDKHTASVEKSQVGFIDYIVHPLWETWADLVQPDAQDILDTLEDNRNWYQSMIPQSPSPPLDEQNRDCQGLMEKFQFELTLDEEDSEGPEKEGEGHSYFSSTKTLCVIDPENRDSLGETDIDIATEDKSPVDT
Method: 1. Determination of the PDE4B IC50 Values with a cAMP HRTF® Assay to Determine the Activity of hPDE4B1
The inhibiting effect of the compounds on the enzyme activity of human PDE4B1 is measured by the quantification of 5′-AMP, which is formed from 3′,5′-adenosine monophosphate (cAMP). Human recombinant enzyme, expressed in Sf9 cells, and the HTRF (homogeneous time-resolved fluorescence) detection method are used in the assay.
The test compound or water (control) is mixed with the human recombinant PDE4B1 enzyme (4.8 U) in a buffer consisting of 44.4 mM tris-HCl, 5.28 mM MgCl2, 2.64 mM DTT and 0.044% Tween 20 (pH 7.8). After adding the cAMP enzyme substrate (final concentration 40 nM) the mixture is incubated for 30 minutes at room temperature. Then a fluorescence acceptor (Dye2 marked with cAMP), a fluorescence donor (anti-cAMP antibody marked with a europium cryptate) and the non-specific phosphodiesterase inhibitor IBMX (3-isobutyl-1-methylxanthine; final concentration 1 mM) are added. After 60 minutes the fluorescence transfer, which correlates with the amount of remaining cAMP, is measured with a microplate reader (Rubystar, BMG) at λex=337 nm, λem=620 nm and λεm=665 nm. The enzyme activity is calculated from the quotient formed from the measured signal at 665 nm and that at 620 nm. The result is expressed as the percentage inhibition of enzyme activity of the control (without PDE4 inhibitor) (literature: N. Saldou et al., Comparison of recombinant human PDE4 isoforms: interaction with substrate and inhibitors, Cell. Signal. Vol. 10, No. 6, 427-440, 1998). The enzyme is omitted for measurement of the basal control. The averaged results are set out in Table 5.

human recombinant PDE4D2 = human recombinant PDE4D2 (Homo sapiens, UniProt Q08499); test: cAMP HTRF assay to determine the activity of hPDE4D2; format: biochemical
Sequence of human recombinant PDE4D2 (Q08499 303-809): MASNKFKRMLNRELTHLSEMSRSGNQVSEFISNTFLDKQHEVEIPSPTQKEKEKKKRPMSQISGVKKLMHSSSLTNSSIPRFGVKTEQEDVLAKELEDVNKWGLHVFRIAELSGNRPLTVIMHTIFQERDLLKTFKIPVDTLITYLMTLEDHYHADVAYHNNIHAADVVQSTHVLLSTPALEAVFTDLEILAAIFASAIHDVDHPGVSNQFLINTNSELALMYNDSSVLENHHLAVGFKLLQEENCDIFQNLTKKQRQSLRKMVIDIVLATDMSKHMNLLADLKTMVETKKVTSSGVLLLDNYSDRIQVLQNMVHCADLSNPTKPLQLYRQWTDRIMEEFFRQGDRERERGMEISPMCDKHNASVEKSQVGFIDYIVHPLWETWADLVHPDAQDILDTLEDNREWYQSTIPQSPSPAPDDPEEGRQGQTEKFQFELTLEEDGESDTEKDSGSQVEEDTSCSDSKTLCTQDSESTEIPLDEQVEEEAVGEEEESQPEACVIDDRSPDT
Method: 2. Determination of the PDE4D-IC50 Values with a cAMP HRTF® Assay to Determine the Activity of hPDE4D2
The further procedure and evaluation are performed in exactly the same way as in the above description of the cAMP HTRF® assay for PDE4B.

[1] = human recombinant PDE4B1, cAMP 40 nM, averaged results (Table 5)
[2] = comparative experiments, re-synthesised prior-art compounds (Table 6)

| Compound | IC50 (human PDE4B1; [1]) [nM] | other results |
| --- | --- | --- |
| O=C(O)Cc1ccc(Nc2nc(-c3ccc(OC(F)F)cc3)nc3c2CCC3)cc1 [Compound 5, 2-(4-(2-(4-(Difluoromethoxy)phenyl)-6,7-dihydro-5H-cyclopenta[d]pyrimidin-4-ylamino)phenyl)acetic acid] | 490 |  |
| O=C(O)Cc1ccc(Nc2nc(-c3ccc(OC(F)(F)F)cc3)nc3c2CCC3)cc1 [Compound 6, 2-(4-(2-(4-(Trifluoromethoxy)phenyl)-6,7-dihydro-5H-cyclopenta[a]pyrimidin-4-ylamino)phenyl)acetic acid] | 3100 |  |
| COc1ccc(-c2nc3c(c(Nc4ccc(CC(=O)O)cc4)n2)CCC3)cc1 [Compound 8, 2-(4-(2-(4-Methoxyphenyl)-6,7-dihydro-5H-cyclopenta[d]pyrimidin-4-ylamino)phenyl)acetic acid as 2,2,2-trifluoroacetic acid addition salt] | 380 |  |
| O=C(O)Cc1ccc(Nc2nc(-c3ccc(Cl)cc3)nc3c2CCC3)cc1 [Compound 9, 2-(4-(2-(4-Chlorophenol)-6,7-dihydro-5H-cyclopenta[d]pyrimidin-4-ylamino)phenyl)acetic acid as 2,2,2-trifluoroacetic acid addition salt] | 880 |  |
| O=C(O)Cc1ccc(Nc2nc(-c3cccc(Cl)c3)nc3c2CCC3)cc1 [Compound 10, 2-(4-(2-(3-Chlorophenyl)-6,7-dihydro-5H-cyclopenta[d]pyrimidin-4-ylamino)phenyl)acetic acid] | 300 |  |
| O=C(O)c1ccc(Nc2nc(-c3cccc(Cl)c3)nc3c2CCC3)cc1 [Compound 11, 4-(2-(3-Chlorophenyl)-6,7-dihydro-5H-cyclopenta[d]pyrimidin-4-ylamino)benzoic acid] | 640 |  |
| O=C(O)c1ccc(Nc2nc(-c3ccc(F)c(F)c3)nc3c2CCC3)cc1 [Compound 15, 4-(2-(3,4-Difluorophenyl)-6,7-dihydro-5H-cyclopenta[d]pyrimidin-4-ylamino)benzoic acid] | 390 | melting point: > 260 °C |
| O=C(O)Cc1ccc(Nc2nc(-c3cccc(F)c3)nc3c2CCC3)cc1 [Compound 17, 2-(4-(2-(3-Fluorophenyl)-6,7-dihydro-5H-cyclopenta[d]pyrimidin-4-ylamino)phenyl)acetic acid] | 210 |  |
| C=CCc1c(C)nc(-c2ccc(OC)cc2)nc1Nc1ccc(CC(=O)O)cc1 [Compound S1, reference compound] |  | IC50 (human PDE4B1; [2]): 3600 nM; IC50 (human recombinant PDE4D2; comparative experiments, re-synthesised prior-art compounds (Table 6), read-out: PDE4D IC50): > 10000 nM |
| C=CCc1c(C)nc(-c2ccccc2)nc1Nc1ccc(C(=O)O)cc1 [Compound S2, reference compound] |  | IC50 (human PDE4B1; [2]): 1100 nM; IC50 (human recombinant PDE4D2): 1300 nM |

Continued, in another order:

| IC50 (human PDE4B1; [1]) [nM] | Compound | other results |
| --- | --- | --- |
| 660 | O=C(O)Cc1ccc(Nc2nc(-c3ccc(Br)cc3)nc3c2CCC3)cc1 [Compound 1, 2-(4-(2-(4-Bromophenyl)-6,7-dihydro-5H-cyclopenta[d]pyrimidin-4-ylamino)phenyl)acetic acid] |  |
| 190 | O=C(O)Cc1ccc(Nc2nc(-c3ccc(F)c(F)c3)nc3c2CCC3)cc1 [Compound 2, 2-(4-(2-(3,4-Difluorophenyl)-6,7-dihydro-5H-cyclopenta[d]pyrimidin-4-ylamino)phenyl)acetic acid] |  |
| 740 | O=C(O)Cc1ccc(Nc2nc(-c3ccc4occc4c3)nc3c2CCC3)cc1 [Compound 2-1, 2-(4-(2-(Benzofuran-5-yl)-6,7-dihydro-5H-cyclopenta[d]pyrimidin-4-ylamino)phenyl)acetic acid] |  |
| 120 | COc1ccc(-c2nc3c(c(Nc4ccc(CC(=O)O)cc4)n2)CCC3)cc1F [Compound 3, 2-(4-(2-(3-Fluoro-4-methoxyphenyl)-6,7-dihydro-5H-cyclopenta[d]pyrimidin-4-ylamino)phenyl)acetic acid] |  |
| 70 | COc1ccc(-c2nc3c(c(Nc4ccc(CC(=O)O)cc4)n2)CCC3)cc1Cl [Compound 4, 2-(4-(2-(3-Chloro-4-methoxyphenyl)-6,7-dihydro-5H-cyclopenta[d]pyrimidin-4-ylamino)phenyl)acetic acid] |  |
| 600 | CCOc1ccc(-c2nc3c(c(Nc4ccc(CC(=O)O)cc4)n2)CCC3)cc1 [Compound 7, 2-(4-(2-(4-Ethoxyphenyl)-6,7-dihydro-5H-cyclopenta[d]pyrimidin-4-ylamino)phenyl)acetic acid] |  |
| 550 | O=C(O)Cc1ccc(Nc2nc(-c3cccc(Cl)c3)nc3c2CCCC3)cc1 [Compound 12, 2-(4-(2-(3-Chlorophenyl)-5,6,7,8-tetrahydroquinazolin-4-ylamino)phenyl)acetic acid] |  |
| 210 | COc1ccc(-c2nc3c(c(Nc4ccc(C(=O)O)cc4)n2)CCC3)cc1F [Compound 13, 4-(2-(3-Fluoro-4-Methoxyphenyl)-6,7-Dihydro-5H-Cyclopenta[d]pyrimidin-4-ylamino)benzoic acid] | melting point: > 260 °C |
| 140 | COc1ccc(-c2nc3c(c(Nc4ccc(C(=O)O)cc4)n2)CCC3)cc1Cl [Compound 14, 4-(2-(3-Chloro-4-methoxyphenyl)-6,7-dihydro-5H-cyclopenta[d]pyrimidin-4-ylamino)benzoic acid] | melting point: > 260 °C |
| 690 | O=C(O)Cc1ccc(Nc2nc(-c3ccccc3)nc3c2CCC3)cc1 [Compound 16, 2-(4-(2-Phenyl-6,7-dihydro-5H-cyclopenta[d]pyrimidin-4-ylamino)phenyl)acetic acid] |  |
| 220 | O=C(O)Cc1ccc(Nc2nc(-c3cccc(Br)c3)nc3c2CCC3)cc1 [Compound 18, 2-(4-(2-(3-Bromophenyl)-6,7-dihydro-5H-cyclopenta[d]pyrimidin-4-ylamino)phenyl)acetic acid] |  |
| 2140 | O=C(O)c1ccc(Nc2nc(-c3cccc(Cl)c3)nc3c2CCCC3)cc1 [Compound 19, 4-(2-(3-Chlorophenyl)-5,6,7,8-tetrahydroquinazoline-4-ylamino)benzoic acid] |  |
